Reference: patent US9480280B2, “Taste modifiers” (Givaudan S.A., priority 2012, dated 2016)

What was measured:
[1] = Skim milk evaluation of creamyness/mouthfeel enhancement; conditions: 10 ppm in skim milk, compared to base without compound
Source text: Skim milk was used as a base to evaluate the creamyness/mouthfeel enhancement properties of the compounds. Samples with compound were compared to the base without compound added.

[2] = Kefir evaluation of creamyness/mouthfeel enhancement; conditions: compared to base without compound
Source text: A commercial Kefir drink was used as a base to evaluate the creamyness/mouthfeel enhancement properties of the compounds. Samples with compound were compared to the base without compound added.

[3] = Sucralose evaluation of bitter masking; conditions: compared to base without compound
Protocol: Compounds were prepared in a sucralose base containing 80 ppm sucralose in water. Compounds were calculated in the base and compared to the base without may compound added.
A solution containing 80 ppm sucralose in water was used as a base to evaluate the bitter masking properties of the compounds. Samples with compound were compared to the base without compound added.

[4] = Low fat milk evaluation of creamyness/mouthfeel enhancement; conditions: 4 ppm in low fat milk (1.5-2% fat), compared to base without compound
Source text: Low fat milk (1.5-2% fat) was used as a base to evaluate the creamyness/mouthfeel enhancement properties of the compounds. Samples with compound were compared to the base without compound added.

[5] = Sweetened yogurt evaluation of creamyness/mouthfeel enhancement; conditions: 10 ppm in yogurt with 5% sucrose and 0.03% creamy mouthfeel flavor, compared to base without compound
Source text: Sweetened yogurt with flavor was used as a base to evaluate the creamyness/mouthfeel enhancement properties of the compounds. The yogurt base was sweetened with 5% sucrose and 0.03% creamy mouthfeel flavor (Givaudan 97584209). Samples with compound were compared to the sweetened base without compound added.

[6] = Rebaudioside A evaluation (taste descriptors); conditions: compared to base without compound
Protocol: A tasting base was prepared with 300 ppm Rebaudioside A in ater. Compounds were added to the base in the concentrations indicated in the table and compared to the base without compound added.

[7] = Red Bull drink evaluation of masking; conditions: compared to base without compound
Protocol: A commercial Red Bull™ Energy drink was used as a base to evaluate the masking properties of the compounds. Compounds were added to the base in the concentrations indicated in the table and compared to the base without compound added.

[8] = J. Agr. Food. Chem. 2007, 55, 9634-9645; cited from earlier work
[9] = 5 ppm in commercial Kefir drink
[10] = 2 ppm in 80 ppm sucralose in water
[11] = 5 ppm in 80 ppm sucralose in water
[12] = 10 ppm in 80 ppm sucralose in water
[13] = 2 ppm in 300 ppm Rebaudioside A in water
[14] = 5 ppm in 300 ppm Rebaudioside A in water
[15] = 10 ppm in 300 ppm Rebaudioside A in water
[16] = 2 ppm in commercial Kefir drink
[17] = 10 ppm in Red Bull Energy drink

Compound | Taste Description [1] | Taste Description [2, 9] | Taste Description [3, 10] | Taste Description [3, 11] | Taste Description [3, 12] | Taste Description [4] | Taste Description [5] | Taste Description [6, 13] | Taste Description [6, 14] | Taste Description [6, 15] | Taste Description [2, 16] | Taste Description ([7]; 5 ppm in Red Bull Energy drink) | Taste Description [7, 17] | effect on cream flavour / creaminess [8]
CCC(O)CCCCCCC(=O)O (stereo not drawn) [8-Hydroxy decanoic acid, 8-hydroxydecanoic Acid] | Some mouthfeel effect | Creamy. fatty mouthfeel. good | Less lingering, more | Velvety mouthfeel. very full. | No masking, adds | Slight mouthfeel | Lingering waxy profile, fattier. | Less bitter, less bitter | Less bitter, less bitter | Helps overall especially | – | – | – | –
CCC(O)CCCC1CCC(=O)O1 (stereo not drawn) [8-hydroxy gamma decalactone, 5-(4-hydroxyhexyl)dihydrofuran-2(3H)-one] | Some mouthfeel effect | more mid body, creamier | Floral, little masking, waxy, | Some effect | Masks sweetness, floral, | – | – | Masks lots of bitter, less | Some masking | High offnote, masks more | Much creamier, fattier, fuller, | Good masking. less sweet | Offnote, similar to control | –
CC(O)CCCCCCCC(=O)O (stereo not drawn) [9-Hydroxy decanoic acid, 9-hydroxydecanoic Acid] | Some mouthfeel effect | Very creamy, mouth-coating, smooth, | Less bitter. lingering, more | Backend masks lingering. | Nice mouthfeel, full upfront | Slightly more mouthfeel | Lingering waxy profile, fattier. | Less bitter, lingering, more | Less bitter, lingernig, waxy, | Offtaste, not much | Very creamy, slight mouthfeel, more | – | Masks better than control | –
CC(O)CCCCC1CCC(=O)O1 (stereo not drawn) [9-hydroxy gamma decalactone, 5-(5-hydroxyhexyl)dihydrofuran-2(3H)-one] | No mouthfeel | More dairy note, more mid body. | Floral, little masking, waxy, | Some effect | High offnote. masks | – | – | Slight fatty note at end. | Not much | High offnote, changes | More creamy than control, upfront | Less sweetness, strong linger | Good masking, offnote | –
CCCCCCCCCC1CCCC(=O)O1 (stereo not drawn) [δ-tetradecalactone] | – | – | – | – | – | – | – | – | – | – | – | – | – | able to enhance the retronasal cream flavour
